Data set [1] is described as follows: AUC (0 to infinity) in liver to plasma of Sprague-Dawley rat at 3 mg/kg,po. The data set is classed as ADME, organism-based. To be noted: in vivo.
Data set [2] is described as follows: Cmax in Beagle dog at 3 mg/kg, po and measured upto 24 hrs by LC-MS/MS analysis. It counts as ADME, organism-based, Canis lupus familiaris. To be noted: in vivo.
The target in data set [3] is T1, Non-structural protein 4b (Hepacivirus hominis, UniProt F5B4I0).
T1 sequence (F5B4I0 whole entry): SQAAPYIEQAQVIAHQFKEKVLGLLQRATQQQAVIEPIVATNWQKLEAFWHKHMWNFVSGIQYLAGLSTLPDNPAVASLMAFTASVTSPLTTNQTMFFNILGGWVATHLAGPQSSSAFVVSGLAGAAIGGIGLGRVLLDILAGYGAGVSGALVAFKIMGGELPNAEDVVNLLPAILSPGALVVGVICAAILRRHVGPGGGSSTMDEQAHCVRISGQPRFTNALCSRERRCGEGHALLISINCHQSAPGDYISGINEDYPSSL
The data set is described as follows: Inhibition of Hepatitis C virus genotype 1a NS4B.

A short description of data set [4]: Half life in Beagle dog at 5 mg/kg, po by LC-MS/MS analysis. It counts as ADME, organism-based, Canis lupus familiaris. To be noted: in vivo.
The nature of data set [5]: AUC in Sprague-Dawley rat plasma […] at 10 mg/kg, po administered via gavage by LC-MS/MS analysis. It counts as ADME, organism-based. To be noted: in vivo.
In data set [6] the target is T1, Non-structural protein 4b. The data set is described as follows: Binding affinity to Hepatitis C virus genotype 1a NS4B assessed as inhibition constant.
Data set [7] is described as follows: Oral bioavailability in Beagle dog at 2 mg/kg. It counts as ADME, organism-based, Canis lupus familiaris. Conditions: in vivo.
Data set [8] is described as follows: Cmax in Sprague-Dawley rat at 3 mg/kg, po and measured upto 24 hrs by LC-MS/MS analysis. It counts as ADME, organism-based. To be noted: in vivo.
Data set [9] is described as follows: Clearance in Sprague-Dawley rat at 2 mg/kg, iv by LC-MS/MS analysis. The data set is classed as ADME, organism-based. Conditions: in vivo.
Data set [10] deals with T1, Non-structural protein 4b. The data set is described as follows: Binding affinity to Hepatitis C virus genotype 3a NS4B assessed as inhibition constant.
Data set [11] is described as follows: Half life in Sprague-Dawley rat at 5 mg/kg, po by LC-MS/MS analysis. The data set is classed as ADME, organism-based. To be noted: in vivo.
Data set [12] in a line: Clearance in Beagle dog plasma at 0.5 mg/kg, iv and measured upto 24 hrs by LC-MS/MS analysis. It counts as ADME, organism-based, Canis lupus familiaris.
Data set [13] is described as follows: Volume of distribution at steady state in Beagle dog at 0.5 mg/kg, iv and measured upto 24 hrs by LC-MS/MS analysis. It counts as ADME, organism-based, Canis lupus familiaris. To be noted: in vivo, read-out: Vdss.
Data set [14] is described as follows: Oral bioavailability in Sprague-Dawley rat. It counts as ADME, organism-based. Conditions: in vivo.
Data set [15] is described as follows: Volume of distribution at steady state in Sprague-Dawley rat at 1 mg/kg, iv. It counts as ADME, organism-based. Conditions: in vivo, read-out: Vdss.
A short description of data set [16]: AUC in Beagle dog at 5 mg/kg, po measured upto 24 hrs by LC/MS-MS analysis. The data set is classed as ADME, organism-based, Canis lupus familiaris. To be noted: in vivo.
Data set [17] is described as follows: Clearance in Sprague-Dawley rat at 0.5 mg/kg, iv by LC-MS/MS analysis. It counts as ADME, organism-based. Conditions: in vivo.
Data set [18] can be described thus: AUC in Sprague-Dawley rat at 5 mg/kg, po measured upto 24 hrs by LC/MS/MS analysis. It counts as ADME, organism-based. Conditions: in vivo.
The nature of data set [19]: Oral bioavailability in Sprague-Dawley rat at 3 mg/kg by LC-MS/MS analysis. To be noted: in vivo. The data set is classed as ADME, organism-based.
The nature of data set [20]: Volume of distribution at steady state in Sprague-Dawley rat at 3 mg/kg, iv measured up to 24 hrs by LC-MS/MS analysis. It counts as ADME, organism-based. To be noted: in vivo, read-out: Vdss.
The test system of data set [21] is Hepatitis C virus. Description: Antiviral activity against Hepatitis C virus infected in human Huh7.5 cells pretreated […] for 2 hrs followed by viral infection for 1 hrs by plaque assay. The data set is classed as functional, organism-based, Hepacivirus hominis.
A short description of data set [22]: AUC in Sprague-Dawley rat at 2 mg/kg, po. Conditions: in vivo. It counts as ADME, organism-based.
Data set [23] in a line: Clearance in Beagle dog at 2 mg/kg, iv by LC-MS/MS analysis. It counts as ADME, organism-based, Canis lupus familiaris. To be noted: in vivo.
Data set [24] deals with T1, Non-structural protein 4b. The data set is described as follows: Inhibition of Hepatitis C virus genotype 1b NS4B.
The nature of data set [25]: AUC in Beagle dog at 2 mg/kg, po. The data set is classed as ADME, organism-based, Canis lupus familiaris. To be noted: in vivo.
In data set [26] the target is Replicase polyprotein 1ab (Severe acute respiratory syndrome coronavirus 2, UniProt P0DTD1). The data set is described as follows: Inhibition of SARS-CoV-2 3CL protease by FRET assay.
Data set [27] concerns SARS-CoV-2. Description: Antiviral activity against SARS-CoV-2 infected in African green monkey Vero E6 cells assessed as reduction in viral replication measured after 48 hrs by Hoechst 33342 staining based analysis. Conditions: Severe acute respiratory syndrome coronavirus 2, Vero C1008, 48 h. It counts as functional, organism-based.
Data set [28] has as its target T1, Non-structural protein 4b. Description: Inhibition of Hepatitis C virus genotype 3a NS4B expressed in Escherichia coli.
Data set [29] concerns the target T1, Non-structural protein 4b. The data set is described as follows: Binding affinity to Hepatitis C virus genotype 1b NS4B assessed as inhibition constant.
The nature of data set [30]: Half life in human liver microsomes at 1 uM by LC-MS/MS analysis. It counts as ADME, Microsome. For orientation: Liver microsomes are a subcellular fraction often used to study metabolism.
Data set [31] in a line: Half life in Cynomolgus monkey at 1.0 mg/kg,iv or 1.25 mg/kg, po. The data set is classed as ADME, organism-based, Macaca fascicularis. Conditions: in vivo.
Data set [32] deals with T1, Non-structural protein 4b. Description: Binding affinity to Hepatitis C virus genotype 2b NS4B assessed as inhibition constant.
In data set [33] the test system is Hepatitis C virus. Description: Antiviral activity against Hepatitis C virus genotype 1b infected in human Huh-7 cells assessed as reduction in viral infection. It counts as functional, organism-based, Hepacivirus hominis.
Data set [34] has as its system Hepatitis C virus. Description: Antiviral activity against Hepatitis C virus genotype 1a infected in human Huh-7 cells assessed as reduction in viral infection. The data set is classed as functional, organism-based, Hepacivirus hominis.

On to `C=C[C@@H]1C[C@]1(NC(=O)[C@@H]1C[C@@H]2CN1C(=O)[C@H](C1CCCC1)NC(=O)O[C@@H]1CCC[C@H]1CCCCCn1c(nc3cc(OC)ccc3c1=O)O2)C(=O)NS(=O)(=O)C1(C)CC1` [MK-2748], for which the area under the curve (AUC) turned out to be 2420 µM·h in data set [1] and 28.9 µM·h in data set [5]. Further, the Cmax in data set [2] stood at 4.4 µM; in data set [8], 0.49 µM. It took 0.009 nM to reach half-maximal inhibition in data set [3] (IC50). Also, the half-life in [4] is 2.5 h; in [11] it was 1.9 h. The Ki is 0.009 nM in data set [6] and 1.2 nM in data set [10]. Also, the figures for the bioavailability in data set [7] and in data set [14] were 27% and 40%, respectively. Besides, the results for the clearance in [9] and in [12] were 5.28 L/h/kg and 0.06 L/h/kg, respectively. Moreover, the Vd stood at 0.12 L/kg in [13] and 5 L/kg in data set [15].
Regarding `C=C[C@@H]1C[C@]1(NC(=O)[C@@H]1C[C@@H](Oc2cc(-c3csc(NC(=O)C(C)C)n3)nc3c(Br)c(OC)ccc23)CN1C(=O)[C@@H](NC(=O)OC1CCCC1)C(C)(C)C)C(=O)O`, the AUC in data set [1] was determined as 40 µM·h; in data set [16] it was 13 µM·h; in [18], 1.55 µM·h. This compound also gave a clearance in data set [17] of 1.2 L/h/kg. For the same compound, the bioavailability in [19] was determined as 40%. Also, the Vd in [20] came out at 1.2 L/kg. The peak level in data set [8] (Cmax) was 0.4 µM. In [11], the half-life is 1.2 h.
In the case of `CCC[C@H](NC(=O)[C@@H]1[C@H]2CCC[C@H]2CN1C(=O)[C@@H](NC(=O)[C@@H](NC(=O)c1cnccn1)C1CCCCC1)C(C)(C)C)C(=O)C(=O)NC1CC1`, in data set [21], the EC50 stood at 15 nM. Moreover, the bioavailability in [7] came out at 40.7%; in data set [14], 25%. In addition, the clearance was 3.24 L/h/kg in data set [9] and 2.52 L/h/kg in data set [23]. In addition, the AUC was determined as 3.34 µM·h in data set [22] and 40.7 µM·h in [25]. Further, in data set [24], the IC50 came out at 354 nM.
Turning to `C=C[C@@H]1C[C@]1(NC(=O)[C@@H]1C[C@@H](Oc2cc(-c3csc(C(=O)CC)n3)nc3c(C)c(OC)ccc23)CN1C(=O)[C@@H](NC(=O)OC1CCCC1)C(C)(C)C)C(=O)O`, the IC50 in data set [26] came out at 10 nM. Also, in data set [27], the EC50 worked out at 12 nM.
Turning to `COc1cnc(O[C@@H]2C[C@H]3C(=O)N[C@]4(C(=O)NS(=O)(=O)C5CC5)CC4/C=C\CCCCC[C@H](NC(=O)OC(C)(C)C)C(=O)N3C2)c2cc(Cl)ccc12` (some centres undefined), the IC50 in data set [28] was found to be 51 nM.
With `C=C[C@@H]1C[C@]1(NC(=O)[C@@H]1C[C@@H](Oc2cc(-c3ccccc3)nc3cc(OC)ccc23)CN1C(=O)[C@@H](CC(=O)N1CCCCC1)C(C)(C)C)C(=O)NS(=O)(=O)C1CC1` [SOVAPREVIR], the AUC in data set [1] is over 505 µM·h; in [5], 339 µM·h. The same compound came in with an IC50 in data set [3] of 11 nM. For the same compound, in [29], the Ki came out at 0.06 nM. For the same compound, the half-life in data set [4] is 115 h; in data set [11], over 90 h; in [31] it was 10.4 h. In data set [30], this compound showed a half-life at 1 µM of 1.77 h.
For the compound `CC(C)(C)NC(=O)N[C@H](C(=O)N1C[C@H]2[C@@H]([C@H]1C(=O)NC(CC1CCC1)C(=O)C(N)=O)C2(C)C)C(C)(C)C` (some centres undefined) [BOCEPREVIR], the Ki in [32], in data set [6] and in [10] was 6 nM throughout.
Take `COc1ccc2c(O[C@@H]3C[C@H]4C(=O)N[C@]5(C(=O)NS(=O)(=O)C6CC6)C[C@H]5/C=C\CCCCC[C@H](CC(=O)N5CCCC(F)(F)C5)C(=O)N4C3)cc(-c3nc(C(C)C)cs3)nc2c1C`: the EC50 was 0.7 nM in data set [33] and 0.04 nM in data set [34].
Consider `C=C[C@@H]1C[C@]1(NC(=O)[C@@H]1C[C@@H](Oc2cc(-c3csc(NC(C)C)n3)nc3c(C(C)C)c(OC)ccc23)CN1C(=O)[C@@H](NC(=O)OC1CCCC1)C(C)(C)C)C(=O)O`, for which the IC50 in [26] is 14 nM. In addition, the EC50 in data set [27] came to 45 nM.

Broadly, the AUC is concentration integrated over time. The Cmax is the maximum level reached in the sampled fluid or tissue. For orientation: IC50 means the concentration at which inhibition is half-maximal. In general, half-life refers to how long it takes for the measured level to halve. As usually defined, the Ki is the dissociation constant of the complex between target and ligand, obtained from inhibition or displacement. Usually bioavailability stands for the share of a dose that reaches the circulation, judged against a reference dose that is usually intravenous. As a reminder, the clearance is the rate of elimination divided by the concentration. The term EC50 denotes the concentration giving half of the maximal effect.

The values above are taken from ChEMBL document CHEMBL5537165, “Hepatitis C: The Story of a Long Journey through First, Second, and Third Generation NS3/4A Peptidomimetic Inhibitors. What Did We Learn?” (J Med Chem, 2024).
